From US12077503B2, “Substituted cyclic amides and their use as herbicides” (FMC CORPORATION, priority 2015, dated 2024)

Columns and labels:
Test in all cases: Test E preemergence
Assay type in all cases: in vivo
Details in all cases: scale 0 to 100
[1] = test system: beggarticks (hairy beggarticks, Bidens pilosa)
How it was run: (§1)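 Greenhouse test: seeds in silt loam treated preemergence, or 1- to 4-leaf plants in peat-based potting medium treated postemergence, with surfactant-containing solvent formulation of compound; assessed 14 to 21 d later. Scores use a 0 to 100 scale where 100 means complete control.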

[2] = test system: goosegrass (Eleusine indica)
How it was run: as §1

[3] = test system: field bindweed (Convolvulus arvensis)
How it was run: as §1

[4] = test system: crabgrass, Brazil (Brazilian crabgrass, Digitaria horizontalis)
How it was run: as §1

[5] = test system: velvetleaf (Abutilon theophrasti)
How it was run: as §1

[6] = test system: dayflower, VA (Virginia dayflower, Commelina virginica)
How it was run: as §1

[7] = test system: waterhemp (common waterhemp, Amaranthus rudis)
How it was run: as §1

[8] = test system: surinam grass (Brachiaria decumbens)
How it was run: as §1

[9] = test system: ryegrass, Italian (Italian ryegrass, Lolium multiflorum)
How it was run: as §1

[10] = test system: poinsettia, wild (wild poinsettia, Euphorbia heterophylla)
How it was run: as §1

[11] = test system: arrowleaf Sida (Sida rhombifolia)
How it was run: as §1

[12] = test system: johnsongrass (Sorghum halepense)
How it was run: as §1

[13] = test system: nightshade (eastern black nightshade, Solanum ptycanthum)
How it was run: as §1

[14] = test system: corn (Zea mays)
How it was run: as §1

[15] = test system: morningglory (Ipomoea coccinea)
How it was run: as §1

[16] = test system: Kochia (Kochia scoparia)
How it was run: as §1

[17] = test system: nutsedge, yellow (yellow nutsedge, Cyperus esculentus)
How it was run: as §1

CN1CC(c2cccc(OC(F)(F)C(F)F)c2)C(C(=O)Nc2cccc(F)c2F)C1=O (centres unmarked) [Compound 392]
Plant response rating: Beggarticks ([1]; 31 g ai/ha): 0
Plant response rating: Beggarticks ([1]; 62 g ai/ha): 0
Plant response rating: Beggarticks ([1]; 125 g ai/ha): 0
Plant response rating: Beggarticks ([1]; 250 g ai/ha): 0
Plant response rating: Goosegrass ([2]; 31 g ai/ha): 85
Plant response rating: Goosegrass ([2]; 62 g ai/ha): 90
Plant response rating: Goosegrass ([2]; 125 g ai/ha): 95
Plant response rating: Goosegrass ([2]; 250 g ai/ha): 95
Plant response rating: Field Bindweed ([3]; 31 g ai/ha): 0
Plant response rating: Field Bindweed ([3]; 62 g ai/ha): 0
Plant response rating: Field Bindweed ([3]; 125 g ai/ha): 35
Plant response rating: Field Bindweed ([3]; 250 g ai/ha): 70
Plant response rating: Crabgrass, Brazil ([4]; 31 g ai/ha): 98
Plant response rating: Crabgrass, Brazil ([4]; 62 g ai/ha): 98
Plant response rating: Crabgrass, Brazil ([4]; 125 g ai/ha): 98
Plant response rating: Crabgrass, Brazil ([4]; 250 g ai/ha): 98
Plant response rating: Velvetleaf ([5]; 31 g ai/ha): 0
Plant response rating: Velvetleaf ([5]; 62 g ai/ha): 20
Plant response rating: Velvetleaf ([5]; 125 g ai/ha): 50
Plant response rating: Velvetleaf ([5]; 250 g ai/ha): 75
Plant response rating: Dayflower, VA ([6]; 31 g ai/ha): 0
Plant response rating: Dayflower, VA ([6]; 62 g ai/ha): 0
Plant response rating: Dayflower, VA ([6]; 125 g ai/ha): 0
Plant response rating: Dayflower, VA ([6]; 250 g ai/ha): 35
Plant response rating: Waterhemp ([7]; 31 g ai/ha): 35
Plant response rating: Waterhemp ([7]; 62 g ai/ha): 80
Plant response rating: Waterhemp ([7]; 125 g ai/ha): 70
Plant response rating: Waterhemp ([7]; 250 g ai/ha): 90
Plant response rating: Surinam Grass ([8]; 31 g ai/ha): 0
Plant response rating: Surinam Grass ([8]; 62 g ai/ha): 0
Plant response rating: Surinam Grass ([8]; 125 g ai/ha): 15
Plant response rating: Surinam Grass ([8]; 250 g ai/ha): 30
Plant response rating: Ryegrass, Italian ([9]; 31 g ai/ha): 0
Plant response rating: Ryegrass, Italian ([9]; 62 g ai/ha): 10
Plant response rating: Ryegrass, Italian ([9]; 125 g ai/ha): 60
Plant response rating: Ryegrass, Italian ([9]; 250 g ai/ha): 70
Plant response rating: Poinsettia, Wild ([10]; 31 g ai/ha): 0
Plant response rating: Poinsettia, Wild ([10]; 62 g ai/ha): 0
Plant response rating: Poinsettia, Wild ([10]; 125 g ai/ha): 35
Plant response rating: Poinsettia, Wild ([10]; 250 g ai/ha): 20
Plant response rating: Arrowleaf Sida ([11]; 31 g ai/ha): 0
Plant response rating: Arrowleaf Sida ([11]; 62 g ai/ha): 15
Plant response rating: Arrowleaf Sida ([11]; 125 g ai/ha): 65
Plant response rating: Arrowleaf Sida ([11]; 250 g ai/ha): 80
Plant response rating: Johnsongrass ([12]; 31 g ai/ha): 25
Plant response rating: Johnsongrass ([12]; 62 g ai/ha): 30
Plant response rating: Johnsongrass ([12]; 125 g ai/ha): 50
Plant response rating: Johnsongrass ([12]; 250 g ai/ha): 95
Plant response rating: Nightshade ([13]; 31 g ai/ha): 20
Plant response rating: Nightshade ([13]; 62 g ai/ha): 80
Plant response rating: Nightshade ([13]; 125 g ai/ha): 90
Plant response rating: Nightshade ([13]; 250 g ai/ha): 90
Plant response rating: Corn ([14]; 31 g ai/ha): 0
Plant response rating: Corn ([14]; 62 g ai/ha): 15
Plant response rating: Corn ([14]; 125 g ai/ha): 50
Plant response rating: Corn ([14]; 250 g ai/ha): 70
Plant response rating: Morningglory ([15]; 31 g ai/ha): 0
Plant response rating: Morningglory ([15]; 62 g ai/ha): 0
Plant response rating: Morningglory ([15]; 125 g ai/ha): 0
Plant response rating: Morningglory ([15]; 250 g ai/ha): 0
Plant response rating: Kochia ([16]; 31 g ai/ha): 85
Plant response rating: Kochia ([16]; 62 g ai/ha): 90
Plant response rating: Kochia ([16]; 125 g ai/ha): 80
Plant response rating: Kochia ([16]; 250 g ai/ha): 90
Plant response rating: Nutsedge, Yellow ([17]; 31 g ai/ha): 0
Plant response rating: Nutsedge, Yellow ([17]; 62 g ai/ha): 0
Plant response rating: Nutsedge, Yellow ([17]; 125 g ai/ha): 0
Plant response rating: Nutsedge, Yellow ([17]; 250 g ai/ha): 0
